pIC50, pKi: −log10 of the molar value. Like-named read-outs stand apart in the source and are kept apart here.
Assays:
Aurora-2 (Aurora A) = molecular target: T1, Aurora-2 (Aurora A) (Homo sapiens, UniProt O14965); test: Aurora-2 (Aurora A) inhibition assay, coupled enzyme; format: biochemical; conditions: read-out: Aurora A kinase Ki value
T1 sequence (O14965 1-403): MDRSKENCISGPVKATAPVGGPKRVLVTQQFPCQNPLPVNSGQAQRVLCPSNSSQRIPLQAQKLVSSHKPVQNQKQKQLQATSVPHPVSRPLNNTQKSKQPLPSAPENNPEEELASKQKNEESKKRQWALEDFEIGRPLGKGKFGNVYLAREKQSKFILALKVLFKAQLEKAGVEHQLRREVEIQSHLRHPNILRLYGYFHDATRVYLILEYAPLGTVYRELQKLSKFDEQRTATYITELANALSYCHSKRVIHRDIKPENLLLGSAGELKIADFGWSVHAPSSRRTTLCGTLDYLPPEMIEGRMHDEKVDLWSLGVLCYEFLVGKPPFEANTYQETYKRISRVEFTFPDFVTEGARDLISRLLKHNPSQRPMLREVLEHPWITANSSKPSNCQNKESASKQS
Protocol: Assays were carried out in a mixture of 100 mM Hepes (pH7.5), 10 mM MgCl2, 1 mM DTT, 25 mM NaCl, 2.5 mM phosphoenolpyruvate, 300 μM NADH, 30 μg/ml pyruvate kinase and 10 μg/ml lactate dehydrogenase. […] Assays were carried out at 30° C. and in the presence of 40 nM Aurora-2.
The plate was preincubated for 10 minutes at 30° C. and the reaction initiated by addition of 10 μl of Aurora-2. Initial reaction rates were determined with a Molecular Devices SpectraMax Plus plate reader over a 10 minute time course. IC50 and Ki data were calculated from non-linear regression analysis using the Prism software package (GraphPad Prism version 3.0cx for Macintosh, GraphPad Software, San Diego Calif., USA).

Aurora-1 (Aurora B) = Aurora-1 (Aurora B) (Homo sapiens, UniProt Q96GD4); test: Aurora-1 (Aurora B) inhibition assay (radiometric); format: biochemical; conditions: read-out: Aurora B kinase Ki value
Aurora-1 (Aurora B), sequence (Q96GD4 whole entry): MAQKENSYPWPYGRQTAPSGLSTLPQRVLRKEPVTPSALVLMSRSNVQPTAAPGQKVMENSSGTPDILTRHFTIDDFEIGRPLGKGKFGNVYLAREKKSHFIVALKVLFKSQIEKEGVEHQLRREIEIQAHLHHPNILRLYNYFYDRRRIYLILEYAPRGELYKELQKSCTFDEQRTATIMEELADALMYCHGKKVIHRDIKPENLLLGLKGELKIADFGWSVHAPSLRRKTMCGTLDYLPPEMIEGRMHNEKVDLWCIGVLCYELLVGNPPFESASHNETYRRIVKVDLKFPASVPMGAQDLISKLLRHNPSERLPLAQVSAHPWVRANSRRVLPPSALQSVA
Protocol: An assay buffer solution was prepared which consisted of 25 mM HEPES (pH 7.5), 10 mM MgCl2, 0.1% BSA and 10% glycerol. […] To 22 μL of the Aurora-B solution, in a 96-well plate, was added 2 μl of a compound stock solution in DMSO and the mixture allowed to equilibrate for 10 minutes at 25° C. The enzyme reaction was initiated by the addition of 16 μl stock [γ-^33P]-ATP solution (˜20 nCi/μL) prepared in assay buffer, to a final assay concentration of 800 μM. The reaction was stopped after 3 hours by the addition of 16 μL 500 mM phosphoric acid and the levels of ^33P incorporation into the peptide substrate were determined by the following method.
A phosphocellulose 96-well plate (Millipore, Cat no. MAPHNOB50) was pre-treated with 100 μL of a 100 mM phosphoric acid prior to the addition of the enzyme reaction mixture (40 μL). The solution was left to soak on to the phosphocellulose membrane for 30 minutes and the plate subsequently washed four times with 200 μL of a 100 mM phosphoric acid. […] Levels of non-enzyme catalyzed background radioactivity were determined by adding 16 μL of the 500 mM phosphoric acid to control wells, containing all assay components (which acts to denature the enzyme), prior to the addition of the [γ-^33P]-ATP solution. Levels of enzyme catalyzed. ^33P incorporation were calculated by subtracting mean background counts from those measured at each inhibitor concentration. […] Ki values were calculated from initial rate data by non-linear regression using the Prism software package (Prism 3.0, Graphpad Software, San Diego, Calif.).

FLT-3 = molecular target: T2, FLT-3 (Homo sapiens, UniProt P36888); test: FLT-3 inhibition assay, radiometric filter-binding; format: biochemical
T2 sequence (P36888 27-993): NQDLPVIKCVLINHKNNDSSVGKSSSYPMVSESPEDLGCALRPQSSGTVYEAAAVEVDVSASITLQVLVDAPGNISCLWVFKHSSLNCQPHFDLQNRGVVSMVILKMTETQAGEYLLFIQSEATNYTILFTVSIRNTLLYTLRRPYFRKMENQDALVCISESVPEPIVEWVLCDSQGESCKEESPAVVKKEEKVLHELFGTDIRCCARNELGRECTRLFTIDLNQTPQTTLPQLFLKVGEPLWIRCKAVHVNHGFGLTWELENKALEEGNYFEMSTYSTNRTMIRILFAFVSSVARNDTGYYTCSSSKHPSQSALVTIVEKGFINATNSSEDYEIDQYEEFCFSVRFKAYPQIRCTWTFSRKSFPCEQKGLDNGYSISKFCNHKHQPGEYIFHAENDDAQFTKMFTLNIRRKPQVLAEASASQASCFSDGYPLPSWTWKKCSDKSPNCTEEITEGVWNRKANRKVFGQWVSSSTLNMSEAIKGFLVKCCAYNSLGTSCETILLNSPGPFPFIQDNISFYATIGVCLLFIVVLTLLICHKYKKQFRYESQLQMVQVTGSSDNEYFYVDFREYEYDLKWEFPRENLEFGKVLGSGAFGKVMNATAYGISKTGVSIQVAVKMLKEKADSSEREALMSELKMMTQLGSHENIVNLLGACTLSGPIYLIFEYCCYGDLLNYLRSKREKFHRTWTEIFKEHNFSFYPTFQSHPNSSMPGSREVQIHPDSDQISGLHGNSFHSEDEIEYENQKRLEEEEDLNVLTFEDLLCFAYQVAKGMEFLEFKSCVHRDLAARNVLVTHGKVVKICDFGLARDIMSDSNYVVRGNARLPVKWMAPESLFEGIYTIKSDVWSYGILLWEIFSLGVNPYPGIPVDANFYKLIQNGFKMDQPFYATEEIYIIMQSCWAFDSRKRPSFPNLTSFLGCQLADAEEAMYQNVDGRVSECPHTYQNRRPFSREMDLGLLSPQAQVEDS
Protocol: This assay monitors the 33P incorporation into a substrate poly(Glu, Tyr) 4:1 (pE4Y). […] Final substrate concentrations in the assay were 90 μM ATP and 0.5 mg/ml pE4Y (both from Sigma Chemicals, St. Louis, Mo.). […] Reactions were carried out at room temperature.
Two assay solutions were prepared. Solution 1 contains 100 mM HEPES (pH 7.5), 10 mM MgCl2, 25 mM NaCl, 1 mg/ml pE4Y and […] (containing 0.3 mCi of [γ-33^P]ATP for each reaction). Solution 2 contains 100 mM HEPES (pH 7.5), 10 mM MgCl2, 25 mM NaCl, 2 mM DTT, 0.02% BSA and 3 nM FLT-3. The assay was run on a 96 well plate by mixing 50 μl each of Solution 1 and […] of the compounds of the present invention. The reaction was initiated with Solution 2. […] All of the reaction volume was then transferred to a filter plate and washed with 5% TCA by a Harvester 9600 from TOMTEC (Hamden, Conn.). The amount of ^33P incorporation into pE4y was analyzed by a Packard Top Count Microplate Scintillation Counter (Meriden, Conn.). The data was fitted using Prism software to get an IC50 or Ki.

Colo205 cells = test: Analysis of cell proliferation and viability; format: cell-based; conditions: Homo sapiens, COLO 205, Colo205 cells, read-out: IC50 value
Protocol: Colo205 cells were seeded in 96 well plates and serially diluted compound was added to the wells in duplicate. Control groups included untreated cells, the compound diluent (0.1% DMSO alone) and culture medium without cells.
To measure proliferation, 3 h prior to the end of the experiment 0.5 μCi of 3H thymidine was added to each well. Cells were then harvested and the incorporated radioactivity counted on a Wallac microplate beta-counter. Cell viability was assessed using Promega CellTiter 96AQ to measure MTS conversion. Dose response curves were calculated using either Prism 3.0 (GraphPad) or SoftMax Pro 4.3.1 LS (Molecular Devices) software.

JAK3 = molecular target: T3, JAK3 (Homo sapiens, UniProt P52333); test: biochemical
T3 sequence (P52333 1-1124): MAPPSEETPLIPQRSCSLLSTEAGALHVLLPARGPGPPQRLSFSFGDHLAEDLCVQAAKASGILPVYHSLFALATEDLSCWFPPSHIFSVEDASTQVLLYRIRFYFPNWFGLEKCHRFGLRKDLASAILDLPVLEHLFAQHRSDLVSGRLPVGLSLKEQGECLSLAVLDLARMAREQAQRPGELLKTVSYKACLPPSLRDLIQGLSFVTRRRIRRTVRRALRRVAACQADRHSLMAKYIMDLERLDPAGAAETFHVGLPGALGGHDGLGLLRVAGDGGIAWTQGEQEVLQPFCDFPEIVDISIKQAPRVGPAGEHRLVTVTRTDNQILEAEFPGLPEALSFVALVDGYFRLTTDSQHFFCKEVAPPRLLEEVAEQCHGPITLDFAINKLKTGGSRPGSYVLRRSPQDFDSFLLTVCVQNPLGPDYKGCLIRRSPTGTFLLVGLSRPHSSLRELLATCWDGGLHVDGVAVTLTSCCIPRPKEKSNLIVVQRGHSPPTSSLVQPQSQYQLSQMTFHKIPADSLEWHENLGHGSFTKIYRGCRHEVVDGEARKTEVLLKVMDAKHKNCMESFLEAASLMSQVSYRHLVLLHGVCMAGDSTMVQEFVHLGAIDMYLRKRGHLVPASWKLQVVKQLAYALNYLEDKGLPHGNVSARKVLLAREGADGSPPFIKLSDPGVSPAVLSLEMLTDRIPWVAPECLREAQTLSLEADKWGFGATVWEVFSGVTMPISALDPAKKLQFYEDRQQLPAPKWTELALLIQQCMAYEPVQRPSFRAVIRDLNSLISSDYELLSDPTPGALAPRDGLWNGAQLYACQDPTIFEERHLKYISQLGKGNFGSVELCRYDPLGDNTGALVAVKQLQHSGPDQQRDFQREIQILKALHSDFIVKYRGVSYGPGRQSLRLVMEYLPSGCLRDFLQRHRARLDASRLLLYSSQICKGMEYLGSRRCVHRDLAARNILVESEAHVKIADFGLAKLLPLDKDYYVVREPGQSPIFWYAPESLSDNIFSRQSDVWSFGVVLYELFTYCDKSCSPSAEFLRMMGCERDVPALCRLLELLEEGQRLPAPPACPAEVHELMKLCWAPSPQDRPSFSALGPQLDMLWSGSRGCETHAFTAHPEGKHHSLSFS
Protocol: Reactions were carried out in a kinase buffer containing 100 mM HEPES (pH 7.4), 1 mM DTT, 10 mM MgCl2, 25 mM NaCl, and 0.01% BSA. Substrate concentrations in the assay were 5 μM ATP (200 uCi/μmole ATP) and 1 μM poly(Glu)4Tyr. Reactions were carried out at 25° C. and 1 nM JAK3.
To each well of a 96 well polycarbonate plate was added 1.5 μl of a candidate JAK3 inhibitor along with 50 μl of kinase buffer containing 2 μM poly(Glu)4Tyr and 10 μM ATP. This was then mixed and 50 μl of kinase buffer containing 2 nM JAK3 enzyme was added to start the reaction. After 20 minutes at room temperature (25 C), the reaction was stopped with 50 μl of 20% trichloroacetic acid (TCA) that also contained 0.4 mM ATP. The entire contents of each well were then transferred to a 96 well glass fiber filter plate using a TomTek Cell Harvester. After washing, 60 μl of scintillation fluid was added and ^33P incorporation detected on a Perkin Elmer TopCount.

SMILES	pKi (Aurora-2 (Aurora A))	pKi (Aurora-1 (Aurora B))	pKi (FLT-3; read-out: FLT-3 Ki value)	pIC50 (Colo205 cells; incubated for 72 hours)	pKi (JAK3; read-out: JAK3 Ki value)	pKi (FLT-3)	pKi (JAK3)	pIC50 (Colo205 cells; incubated for 96 hours)
Cc1cc(Nc2cc(N3CCC3)nc(Sc3ccc(NC(=O)C4(C(F)(F)F)CC4)cc3)n2)[nH]n1 [Compound 142]	8.30 to 9.00	≥ 8.00	6.00 to 6.82	6.70 to 7.52	–	–	–	–
Cc1cc(Nc2cc(N3CC(F)(C4CC4)C3)nc(Sc3ccc4ccn(CC(F)(F)F)c(=O)c4c3)n2)[nH]n1 [Compound 189]	–	5.70 to 7.30	–	< 6.70	6.30 to 8.00	6.82 to 7.30	–	–
Cc1cc(Nc2cc(N3CCC3)nc(Sc3ccc(N(C)C(=O)c4c(F)cccc4F)cc3)n2)n[nH]1 [Compound 11]	–	5.70 to 7.30	–	–	–	6.00 to 6.82	6.30 to 8.00	6.00 to 7.30
Cc1cc(Nc2cc(CN3CCC3)nc(Sc3ccc(NC(=O)c4ccccc4C(F)(F)F)cc3)n2)[nH]n1 [Compound 132]	–	7.30 to 8.00	–	< 6.70	–	6.00 to 6.82	5.70 to 6.30	6.00 to 7.30
Cc1cc(Nc2cc(N3CC(F)(C4CC4)C3)nc(Sc3ccc(NC(=O)[C@H]4CCCN4C(C)C)cc3)n2)[nH]n1 [Compound 193]	8.30 to 9.00	5.70 to 7.30	6.00 to 6.82	< 6.70	–	–	–	–
Cc1cc(Nc2cc(N3CCC3)nc(Sc3ccc(NC(=O)c4ccc(CN5CCC5)cc4)cc3)n2)[nH]n1 [Compound 139]	6.70 to 8.30	5.70 to 7.30	6.00 to 6.82	–	–	–	–	6.00 to 7.30
Cc1cc(Nc2cc(N3CC(N4CCOCC4)C3)nc(Sc3ccc4nc(C(F)(F)F)n(C)c4c3)n2)[nH]n1 [Compound 195]	–	≥ 8.00	–	6.70 to 7.52	–	6.00 to 6.82	6.30 to 8.00	–

Reference: US8637511B2, “Aminopyrimidines useful as kinase inhibitors” (Vertex Pharmaceuticals Incorporated, priority 2005, dated 2014)
